Experimental data: ChEMBL document CHEMBL2203096, “Recent advances in hypoxia-inducible factor (HIF)-1 inhibitors” (Eur J Med Chem, 2012)
pEC50, pIC50: −log10 of the molar value.

Assays:
[1] = Metabolic stability in human Hepatocyte assessed as compound remaining at 1 umol/L after 2 hrs by RP-HPLC analysis; assay type: ADME, cell-based; settings: hepatocytes, read-out: Stability
[2] = Metabolic stability in rat Hepatocyte assessed as compound remaining at 1 umol/L after 2 hrs by RP-HPLC analysis; assay type: ADME, cell-based; settings: hepatocytes, read-out: Stability
[3] = Antitumor activity against human Hep3B cells xenografted in nude mouse assessed as reduction in tumor size at 10 to 30 mg/kg/day, ip for 2 weeks (reference value: 900 mm3); assay type: functional, Hep 3B2; settings: route intraperitoneal
[4] = biological target: T1, Hypoxia-inducible factor 1-alpha (Homo sapiens, UniProt Q16665); assay: Inhibition of HIF-1alpha in human LN229 cells under hypoxia condition by HRE-luciferase reporter gene assay; assay type: cell-based
T1 sequence (Q16665 whole entry): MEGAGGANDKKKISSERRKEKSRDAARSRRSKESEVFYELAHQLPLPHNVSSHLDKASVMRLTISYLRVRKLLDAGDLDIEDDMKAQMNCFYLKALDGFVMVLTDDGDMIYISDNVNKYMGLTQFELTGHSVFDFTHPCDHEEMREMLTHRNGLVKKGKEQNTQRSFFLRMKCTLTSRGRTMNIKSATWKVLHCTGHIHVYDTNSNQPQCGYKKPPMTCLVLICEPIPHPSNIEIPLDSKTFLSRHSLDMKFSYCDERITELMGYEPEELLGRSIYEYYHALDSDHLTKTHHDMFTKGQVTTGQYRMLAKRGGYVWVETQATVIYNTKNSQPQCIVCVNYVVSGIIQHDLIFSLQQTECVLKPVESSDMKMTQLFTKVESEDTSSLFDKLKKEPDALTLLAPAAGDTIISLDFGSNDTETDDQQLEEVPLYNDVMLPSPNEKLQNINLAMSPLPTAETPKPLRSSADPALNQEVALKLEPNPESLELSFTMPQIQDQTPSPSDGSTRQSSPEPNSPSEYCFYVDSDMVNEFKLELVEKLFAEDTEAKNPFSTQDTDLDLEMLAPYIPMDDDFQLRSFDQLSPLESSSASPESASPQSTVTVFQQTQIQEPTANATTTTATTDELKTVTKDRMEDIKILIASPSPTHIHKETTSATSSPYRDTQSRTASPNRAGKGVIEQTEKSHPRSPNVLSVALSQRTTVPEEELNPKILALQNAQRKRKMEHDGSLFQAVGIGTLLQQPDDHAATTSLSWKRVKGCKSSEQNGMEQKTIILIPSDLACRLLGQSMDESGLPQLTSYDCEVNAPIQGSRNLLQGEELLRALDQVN

[5] = biological target: T1, Hypoxia-inducible factor 1-alpha; assay: Inhibition of HIF-1alpha in human HCT116 cells under hypoxia condition by HRE-luciferase reporter gene assay; assay type: cell-based, HCT-116
MDA-MB-435 = assay: Antitumor activity against human MDA-MB-435 cells xenografted in nude mouse assessed as inhibition of tumor growth at 20 to 50 mg/kg, qd for 5 weeks; assay type: functional; settings: dose mg/kg 20-50
[6] = Apparent permeability across human Caco2 cells at 5 uM; assay type: ADME, cell-based; settings: Caco-2
Mus musculus = assay: Toxicity in human HCT116 cells xenografted mouse assessed as decrease in body weight at 30 mg/kg, iv; assay type: organism-based, HCT-116; set-up: dose 30 mg/kg, route intravenous; scale not given: the % may be the effect or the level left; settings: in vivo
HCT-116 = assay: Antitumor activity against human HCT116 cells xenografted in mouse assessed as inhibition of tumor growth at 30 mg/kg, iv; assay type: functional; settings: read-out: TGI
[7] = Antitumor activity against human […] cells xenografted in athymic nude mice assessed as reduction of tumor size at 20 mg/kg, qd; assay type: functional; set-up: scale not given: the % may be the effect or the level left
[8] = biological target: T1, Hypoxia-inducible factor 1-alpha; assay: Inhibition of HIF-1alpha transcriptional co-activator p300 interaction
[9] = biological target: T1, Hypoxia-inducible factor 1-alpha; assay: Inhibition of HIF-1alpha-mediated VEGF secretion in human Hep3b cells by ELISA; assay type: cell-based
[10] = biological target: T1, Hypoxia-inducible factor 1-alpha; assay: Inhibition of HIF-1alpha-mediated VEGF expression in human Hep3b cells by luciferase reporter gene assay; assay type: cell-based
Nucleic Acid = assay: Binding affinity to HIF-1 5'-CGTG-3' DNA sequence in human U251 cells assessed as inhibition of HRE-mediated reporter activation; assay type: cell-based; settings: u-251
[11] = Apparent permeability across human Caco2 cells at 10 uM; assay type: ADME, cell-based; settings: Caco-2
[12] = Apparent permeability across human Caco2 cells at 20 uM; assay type: ADME, cell-based; settings: Caco-2

Which results are given for `COc1cc2c(cc1C(N)=O)CC[C@@H]1[C@@H]2CC[C@]2(C)CCC[C@@H]12`?
remaining at 2 h, 1 µM [1]: > 65%; remaining at 2 h, 1 µM [2]: > 65%

For `Cn1c(CO)ccc1-c1nn(Cc2ccccc2)c2ccccc12`, which Activity [3] is on record?
The Activity was 400 mm3.

With `COc1c(C(C2CCCCC2)n2cnc3c(Cl)cccc32)ccc2c1C=CC(C)(C)O2` (centres undefined) as the molecule, how does the pIC50 [4] read?
The pIC50 was 5.12.

With `Cc1ccc(Cn2nc(-c3nc4ccc(-c5ccc(Cl)cc5)cc4[nH]3)cc2C)cc1` as the molecule, how does the pIC50 [5] read?
The pIC50 was 8.52.

For `COC(=O)c1ccc2[nH]c(COc3ccc(C45CC6CC(CC(C6)C4)C5)cc3)nc2c1`, which TGI (MDA-MB-435) is on record?
Its TGI is 58.6%.

For `OCc1ccc(-c2nn(Cc3ccccc3)c3ccccc23)o1`, which Activity [3] is on record?
Its Activity is 400 mm3.

Which Papp at 5 µM [6] does the source give for `O=C(COc1ccc(C23CC4CC(CC(C4)C2)C3)cc1)Nc1cc(C(=O)NCCCn2ccnc2)ccn1` here?
Its Papp at 5 µM is 22.9 ×10⁻⁶ cm/s.

What about the Activity (Mus musculus) of the same molecule?
The Activity was 92.7%.

And the inhibition in vivo at 30 mg/kg (HCT-116)?
The inhibition in vivo at 30 mg/kg was 51.3%.

With `COC(=O)c1ccc(O)c(NC(=O)COc2ccc(C34CC5CC(CC(C5)C3)C4)cc2)c1` as the molecule, how does the Activity [7] read?
Its Activity is 53.6%.

Which results are given for `COc1cc2c(cc1O)CC[C@@H]1[C@@H]2CC[C@]2(C)[C@@H](O)CC[C@@H]12` [2-METHOXYESTRADIOL]?
remaining at 2 h, 1 µM [1]: > 65%; remaining at 2 h, 1 µM [2]: > 65%

With `CN1C(=O)[C@@]23C[C@]4([C@]56C[C@@]78SS[C@@](CO)(C(=O)N7[C@H]5Nc5ccccc56)N(C)C8=O)c5ccccc5N[C@@H]4N2C(=O)[C@]1(CO)SS3` [CHAETOCIN] as the molecule, how does the pIC50 [8] read?
The pIC50 was 4.90.

What about the pIC50 [9] of the same molecule?
Its pIC50 is 7.00.

What about the pIC50 [10] of the same molecule?
Its pIC50 is 7.40.

With `CS[C@H]1SC[C@H]2C(=O)N(C)[C@@H](C(C)C)C(=O)OC[C@@H](NC(=O)c3cnc4ccccc4n3)C(=O)N[C@@H](C)C(=O)N(C)[C@@H]1C(=O)N(C)[C@@H](C(C)C)C(=O)OC[C@@H](NC(=O)c1cnc3ccccc3n1)C(=O)N[C@@H](C)C(=O)N2C` [ECHINOMYCIN] as the molecule, how does the pEC50 (Nucleic Acid) read?
The pEC50 was 8.92.

Which Papp at 10 µM [11] does the source give for `COCCc1ccc(OCC(O)CNC(C)C)cc1` (centres undefined) [METOPROLOL] here?
Its Papp at 10 µM is 27.2 ×10⁻⁶ cm/s.

With `CNC(=C[N+](=O)[O-])NCCSCc1ccc(CN(C)C)o1` [RANITIDINE] as the molecule, how does the Papp at 20 µM [12] read?
Its Papp at 20 µM is 0.6 ×10⁻⁶ cm/s.
